According to PubChem BioAssay AID608 (Sanford-Burnham Center for Chemical Genomics, 2007):
The source made the active and inactive calls. How the calls were made is not given here.

target: Peptidyl-prolyl cis-trans isomerase FKBP1A (Homo sapiens) (UniProt P62942); assay: small-molecule binding to FKBP12 – biophysical, NMR detection (AID 608); details: purified FKBP12
Sequence (P62942 whole entry, looked up): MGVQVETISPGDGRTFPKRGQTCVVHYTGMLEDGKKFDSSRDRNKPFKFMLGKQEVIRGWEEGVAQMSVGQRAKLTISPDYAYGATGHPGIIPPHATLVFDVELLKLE

SMILES | Kd
CCC(C)C(=O)O[C@@H]1C[C@@]2(C)[C@H](c3ccoc3)OC(=O)CC23OC2(C)OC34[C@H](OC(=O)C(C)C)[C@@]3(O)[C@@H](OC(=O)C5(C)OC5C)[C@@]5(C)C[C@]3(O)[C@@](C)([C@H]5CC(=O)OC)C14O2 (stereo partly drawn) | > 4 mM (inactive)
Cc1cc[n+](-c2nc([O-])sc2C=O)cc1 | > 4 mM (inactive)
O=C(NN1C(=O)c2ccccc2C1=O)c1cccs1 | > 4 mM (inactive)
NC(=O)c1ccc(N=Cc2ccc[nH]2)cc1 | > 4 mM (inactive)
C=C1[C@H]2CC[C@@]3(C)[C@H](c4ccoc4)OC(=O)C[C@]13O[C@H]1C[C@H](O)C(C)(C)[C@H](CC(=O)OC)[C@]12C | > 4 mM (inactive)
Cc1[nH]c2ccccc2c1C(=O)CSc1ncn[nH]1 | > 4 mM (inactive)
Nc1ccc(CCC(=O)O)cc1 | > 4 mM (inactive)
Cc1ccc2[nH]c3nc(=S)[nH]nc3c2c1 | > 4 mM (inactive)
O=C(Nc1nnc(-c2ccco2)o1)c1ccc([N+](=O)[O-])o1 | > 4 mM (inactive)
O=C(CNC(=O)c1ccc(F)cc1)NC1=NCCS1 | > 4 mM (inactive)
CC1=CC2C(C(C)C)CCC(C)(O)C2CC1 (stereo not drawn) | > 4 mM (inactive)
CC1Oc2ccccc2OC1C(=O)N1CCOCC1 (stereo not drawn) | > 4 mM (inactive)
CCc1nnc(NC(C)=O)s1 | > 4 mM (inactive)
C[C@@H]1CC[C@@]2(OC1)OC1C(O)C3C4CC[C@H]5C[C@H](O[C@@H]6O[C@H](CO)[C@H](O[C@@H]7O[C@H](CO)[C@@H](O)[C@H](O[C@@H]8OC[C@@H](O)[C@H](O)[C@H]8O)[C@H]7O[C@@H]7O[C@H](CO)[C@H](O)[C@H](O[C@@H]8O[C@H](CO)[C@@H](O)[C@H](O)[C@H]8O)[C@H]7O)[C@H](O)[C@H]6O)[C@H](O)C[C@]5(C)C4CC[C@]3(C)C1[C@@H]2C (stereo partly drawn) | > 4 mM (inactive)
Cc1ccc(/C=C2/C(=O)N=C(N)N2C)s1 | > 4 mM (inactive)
OC1CC2CCC1C2 (stereo not drawn) | > 4 mM (inactive)
O=C(c1ccncc1)N1CCN(C(=O)c2ccco2)CC1 | > 4 mM (inactive)
O=C1COc2ccc(C(=O)c3ccccc3)cc2CN1 | > 4 mM (inactive)
COc1ccccc1-c1n[nH]c(=O)o1 | > 4 mM (inactive)
OC[C@H]1O[C@@H](Oc2ccc(O)cc2)[C@H](O)[C@@H](O)[C@@H]1O | > 4 mM (inactive)
CC(=O)c1ccc(CC2SC(N)=NC2=O)cc1 (stereo not drawn) | > 4 mM (inactive)

SMILES | Kd
O=C1OC(N2CCOCC2)c2ccccc21 (stereo not drawn) | > 4 mM (inactive)
Cc1c(C(=O)Nc2ccccc2)sc(N)c1C(N)=O | > 4 mM (inactive)
CC1(O)CC2C(CC1O)C2(C)C (stereo not drawn) | > 4 mM (inactive)
CC(=O)Oc1ccc(-c2cc(=O)c3c(OC(C)=O)cc(OC(C)=O)cc3o2)cc1 | > 4 mM (inactive)
NC(=O)COc1cccc2cccnc12 | > 4 mM (inactive)
CSc1ccccc1NC(=O)Cn1c(-c2cscn2)nc2ccccc21 | > 4 mM (inactive)
S=c1[nH]nc(-c2cccnc2)n1C1CCCCC1 | > 4 mM (inactive)
O=C(NCN1CCOCC1)c1cccnc1 | > 4 mM (inactive)
COC(=O)[C@@H]1CCCCN1C(=O)C(=O)c1cc(OC)c(OC)c(OC)c1 | 0.003 mM
O=C(Cc1c(F)cccc1Cl)Nc1ccon1 | > 4 mM (inactive)
CCSc1nc2ccccc2n1CC(N)=O | > 4 mM (inactive)
O=C(NCc1ccccc1)c1ccc[n+]([O-])c1 | > 4 mM (inactive)
O=C1O[C@H](C(O)CO)C(O)=C1O (stereo partly drawn) | > 4 mM (inactive)
Cc1nnsc1C(=O)O | > 4 mM (inactive)
c1cncc(-c2nnc(-c3cccnc3)nn2)c1 | > 4 mM (inactive)
O=C1c2ccccc2C(=O)c2c(O)c(O)cc(O)c21 | > 4 mM (inactive)
COc1ccc(-c2coc3cc(O)ccc3c2=O)c(OC)c1 | > 4 mM (inactive)
COc1c2occc2c(OC)c2c(=O)cc(C)oc12 | > 4 mM (inactive)
O=S(=O)(NCc1ccco1)c1cccc2cccnc12 | > 4 mM (inactive)
COc1ccccc1NC(N)=S | > 4 mM (inactive)
OCC1CCN(Cc2ccccc2)CC1 | > 4 mM (inactive)

SMILES | Kd
COC1=CC(=O)C=C(OC)C1=O | > 4 mM (inactive)
Cc1ccc2cccc(OC(=O)N3CCCC3)c2n1 | > 4 mM (inactive)
Cc1ccc2cc(CO)ccc2n1 | > 4 mM (inactive)
COc1nc(-c2ccccc2)ccc1-c1noc(C)n1 | > 4 mM (inactive)
Cc1nc2ccc(F)cc2cc1C(=O)NCc1ccco1 | > 4 mM (inactive)
CN1CCC(NC(=O)Cc2c(F)cccc2Cl)CC1 | > 4 mM (inactive)
C=CCn1c(-c2ccc(O)cc2)n[nH]c1=S | > 4 mM (inactive)
CCOC(=O)N1CCN(c2ncnc3c2cnn3C)CC1 | > 4 mM (inactive)
O=c1[nH]c(=S)[nH]c2c1CCC2 | > 4 mM (inactive)
CN=C(C)c1c(O)n(C)c(=S)n(C)c1=O | > 4 mM (inactive)
O=C(NCCO)c1ccccc1I | > 4 mM (inactive)
COC(=O)C1=C(C)N(Cc2ccco2)C(=O)C1 | > 4 mM (inactive)
NC1=NC(=O)/C(=C/c2cccc([N+](=O)[O-])c2)S1 | > 4 mM (inactive)
CC(C)(C)Cc1nc(-c2ccccn2)no1 | > 4 mM (inactive)
c1ccc(CSc2ncccn2)cc1 | > 4 mM (inactive)
CNC(=S)N1CCN=C1Nc1nc(C)cc(C)n1 | > 4 mM (inactive)
CC1(C)Cc2nc(N3CCOCC3)c(C#N)cc2CO1 | > 4 mM (inactive)
Cc1cc(NC(=O)CSc2nncn2C)no1 | > 4 mM (inactive)
CC(C)=CC1C(C(=O)O)C1(C)C (stereo not drawn) | > 4 mM (inactive)
Cc1ccc(N)nc1 | > 4 mM (inactive)
O=C(O)CCc1c[nH]c2ccccc12 | > 4 mM (inactive)

SMILES | Kd
CC(C)NS(=O)(=O)c1ccc(OCC(=O)N2CCOCC2)cc1 | inactive
O=c1c(-c2cc(O)c(O)c(O)c2)coc2cc(O)c(O)c(O)c12 | > 4 mM (inactive)
O=C(O)c1ccc2ccccc2n1 | > 4 mM (inactive)
CC(=O)CC(=O)N1C(O)CC[N+]1(C)C (stereo not drawn) | > 4 mM (inactive)
O=C1CC(=O)N(c2ccccc2)c2ccccc21 | > 4 mM (inactive)
Cc1ccc(-c2ccc(OCC(=O)N3CCOCC3)cc2)cc1 | inactive
COc1c2c(cc3c1OCO3)CCN(C)C2 | > 4 mM (inactive)
CC(C)CC(=O)NC1CCSC1=O (stereo not drawn) | > 4 mM (inactive)
O=C(Nc1ccon1)c1ccc2c(c1)OCO2 | > 4 mM (inactive)
CCNC(=S)Nc1c(C)n(C)n(-c2ccccc2)c1=O | > 4 mM (inactive)
CN(C)c1nc(N)nc(-c2nc3ccccc3s2)n1 | > 4 mM (inactive)
O=C(O)c1onc2ccccc12 | > 4 mM (inactive)
CC(=O)Nc1ccc(Cl)c(C(N)=O)c1 | > 4 mM (inactive)
COC(=O)c1ccc2snnc2c1 | > 4 mM (inactive)
COC(=O)CSc1ncnc2c(C)csc12 | > 4 mM (inactive)
Cc1n[nH]c(=S)[nH]c1=O | > 4 mM (inactive)
COc1ccccc1-c1nc(=S)[nH][nH]1 | > 4 mM (inactive)
NC(=O)c1cccc(Cl)n1 | > 4 mM (inactive)
Cc1nnc(SCC(=O)N2CCCCC2)s1 | > 4 mM (inactive)
COC1=CC(=O)C[C@@H](C)[C@]12Oc1c(Cl)c(OC)cc(OC)c1C2=O | > 4 mM (inactive)
